Experimental data: ChEMBL document CHEMBL5303766, “Data for DCP probe FHT-2344” (2022)

Assays:
[1] = molecular target: Cyclin-dependent kinase 2 (Homo sapiens) (UniProt P24941); assay: CDK2 SGC Tm panel (DSF); details: for ΔTm: Compound concentration 10.0 uM
[2] = molecular target: Calcium/calmodulin-dependent protein kinase type II subunit beta (Homo sapiens) (UniProt Q13554); assay: CAMK2B SGC Tm panel (DSF); details: for ΔTm: Compound concentration 10.0 uM
[3] = molecular target: Cyclin-dependent kinase-like 1 (Homo sapiens) (UniProt Q00532); assay: CDKL1 SGC Tm panel (DSF); details: for ΔTm: Compound concentration 10.0 uM
[4] = molecular target: Tyrosine-protein kinase Fes/Fps (Homo sapiens) (UniProt P07332); assay: FES SGC Tm panel (DSF); details: for ΔTm: Compound concentration 10.0 uM
[5] = molecular target: T1, Mitogen-activated protein kinase 13 (Homo sapiens) (UniProt O15264); assay: MAPK13 SGC Tm panel (DSF); details: for ΔTm: Compound concentration 10.0 uM
T1 sequence (whole entry): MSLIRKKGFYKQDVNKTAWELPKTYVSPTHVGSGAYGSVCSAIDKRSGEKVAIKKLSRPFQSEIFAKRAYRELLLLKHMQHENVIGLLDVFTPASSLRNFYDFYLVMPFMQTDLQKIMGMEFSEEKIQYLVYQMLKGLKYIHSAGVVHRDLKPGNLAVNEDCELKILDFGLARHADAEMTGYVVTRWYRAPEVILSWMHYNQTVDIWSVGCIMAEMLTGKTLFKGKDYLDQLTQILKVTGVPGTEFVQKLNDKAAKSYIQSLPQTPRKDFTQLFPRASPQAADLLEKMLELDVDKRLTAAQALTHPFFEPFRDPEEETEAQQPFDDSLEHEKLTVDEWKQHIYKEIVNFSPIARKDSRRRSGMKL

[6] = molecular target: T2, Phosphorylase b kinase gamma catalytic chain, liver/testis isoform (Homo sapiens) (UniProt P15735); assay: PHKG2 SGC Tm panel (DSF); details: for ΔTm: Compound concentration 10.0 uM
T2 sequence (whole entry): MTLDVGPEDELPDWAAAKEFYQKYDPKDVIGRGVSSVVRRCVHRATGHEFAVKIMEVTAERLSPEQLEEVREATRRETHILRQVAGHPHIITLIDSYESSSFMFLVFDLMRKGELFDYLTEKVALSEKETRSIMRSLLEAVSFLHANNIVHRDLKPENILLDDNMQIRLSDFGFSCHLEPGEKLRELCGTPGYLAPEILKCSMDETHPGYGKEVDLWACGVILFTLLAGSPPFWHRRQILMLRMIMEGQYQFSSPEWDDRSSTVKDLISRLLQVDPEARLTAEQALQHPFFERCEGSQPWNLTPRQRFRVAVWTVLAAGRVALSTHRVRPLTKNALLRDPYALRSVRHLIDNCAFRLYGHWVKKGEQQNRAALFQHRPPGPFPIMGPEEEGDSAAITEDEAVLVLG

[7] = molecular target: T3, Serine/threonine-protein kinase 3 (Homo sapiens) (UniProt Q13188); assay: STK3 SGC Tm panel (DSF); details: for ΔTm: Compound concentration 10.0 uM
T3 sequence (whole entry): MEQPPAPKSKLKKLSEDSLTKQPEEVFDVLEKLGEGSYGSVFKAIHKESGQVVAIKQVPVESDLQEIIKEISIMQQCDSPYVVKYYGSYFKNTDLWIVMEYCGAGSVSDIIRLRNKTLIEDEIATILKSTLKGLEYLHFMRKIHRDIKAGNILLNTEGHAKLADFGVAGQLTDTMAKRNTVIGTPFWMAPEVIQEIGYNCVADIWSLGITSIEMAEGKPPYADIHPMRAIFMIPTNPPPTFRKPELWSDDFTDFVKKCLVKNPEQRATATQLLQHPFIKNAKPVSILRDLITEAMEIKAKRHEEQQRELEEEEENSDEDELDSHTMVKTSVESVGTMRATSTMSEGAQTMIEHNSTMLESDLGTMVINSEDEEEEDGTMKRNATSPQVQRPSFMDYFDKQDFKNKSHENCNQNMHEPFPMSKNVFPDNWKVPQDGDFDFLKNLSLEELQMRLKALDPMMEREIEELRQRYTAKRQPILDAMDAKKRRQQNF

[8] = molecular target: T4, Serine/threonine-protein kinase ULK1 (Homo sapiens) (UniProt O75385); assay: ULK1 SGC Tm panel (DSF); details: for ΔTm: Compound concentration 10.0 uM
T4 sequence (whole entry): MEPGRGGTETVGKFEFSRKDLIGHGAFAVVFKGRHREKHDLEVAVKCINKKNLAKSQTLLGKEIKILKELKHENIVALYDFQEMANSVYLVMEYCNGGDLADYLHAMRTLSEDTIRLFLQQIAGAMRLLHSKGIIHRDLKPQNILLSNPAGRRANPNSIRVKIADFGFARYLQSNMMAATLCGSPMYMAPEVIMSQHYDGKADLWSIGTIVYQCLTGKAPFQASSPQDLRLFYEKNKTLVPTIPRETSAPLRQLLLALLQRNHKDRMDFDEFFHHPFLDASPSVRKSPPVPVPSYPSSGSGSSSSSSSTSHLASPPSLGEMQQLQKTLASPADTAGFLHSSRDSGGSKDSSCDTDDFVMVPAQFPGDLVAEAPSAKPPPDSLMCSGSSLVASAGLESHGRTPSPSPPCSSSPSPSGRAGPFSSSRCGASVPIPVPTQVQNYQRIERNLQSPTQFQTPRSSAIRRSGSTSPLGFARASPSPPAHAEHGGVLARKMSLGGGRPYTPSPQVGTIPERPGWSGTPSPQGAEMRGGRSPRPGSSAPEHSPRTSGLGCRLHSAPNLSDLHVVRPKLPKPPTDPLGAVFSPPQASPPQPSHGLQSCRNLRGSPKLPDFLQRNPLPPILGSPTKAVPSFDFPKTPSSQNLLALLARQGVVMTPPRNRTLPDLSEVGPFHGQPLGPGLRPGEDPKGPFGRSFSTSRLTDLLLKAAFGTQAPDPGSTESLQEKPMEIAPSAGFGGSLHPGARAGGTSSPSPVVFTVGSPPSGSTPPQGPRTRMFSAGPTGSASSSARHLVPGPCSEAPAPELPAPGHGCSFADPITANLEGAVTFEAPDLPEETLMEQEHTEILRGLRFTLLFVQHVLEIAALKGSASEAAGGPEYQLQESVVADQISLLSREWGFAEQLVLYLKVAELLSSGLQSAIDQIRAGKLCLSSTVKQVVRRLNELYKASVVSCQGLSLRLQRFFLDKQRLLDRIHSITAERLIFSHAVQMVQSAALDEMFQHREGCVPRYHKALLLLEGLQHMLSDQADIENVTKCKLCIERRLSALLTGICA

[9] = molecular target: 5-hydroxytryptamine receptor 3A (Homo sapiens) (UniProt P46098); details: Compound concentration 10.0 uM
[10] = molecular target: Histamine H3 receptor (Homo sapiens) (UniProt Q9Y5N1); details: Compound concentration 10.0 uM
[11] = molecular target: Alpha-1A adrenergic receptor (Homo sapiens) (UniProt P35348); details: Compound concentration 10.0 uM
[12] = molecular target: Beta-2 adrenergic receptor (Homo sapiens) (UniProt P07550); details: Compound concentration 10.0 uM
Sequence of Beta-2 adrenergic receptor (Homo sapiens) (P07550 whole entry, looked up): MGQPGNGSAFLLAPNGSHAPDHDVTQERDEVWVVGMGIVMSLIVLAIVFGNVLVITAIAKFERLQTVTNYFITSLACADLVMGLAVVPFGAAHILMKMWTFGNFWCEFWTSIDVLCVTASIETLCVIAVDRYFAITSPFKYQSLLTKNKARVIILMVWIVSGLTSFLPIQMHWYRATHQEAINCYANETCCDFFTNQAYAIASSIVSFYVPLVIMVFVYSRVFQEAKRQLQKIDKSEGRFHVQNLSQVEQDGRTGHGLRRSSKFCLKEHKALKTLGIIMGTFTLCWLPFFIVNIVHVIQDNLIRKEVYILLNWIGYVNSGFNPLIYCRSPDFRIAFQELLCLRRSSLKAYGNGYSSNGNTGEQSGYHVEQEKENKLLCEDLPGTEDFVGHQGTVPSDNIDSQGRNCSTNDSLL

Sequence of Calcium/calmodulin-dependent protein kinase type II subunit beta (Homo sapiens) (Q13554 whole entry): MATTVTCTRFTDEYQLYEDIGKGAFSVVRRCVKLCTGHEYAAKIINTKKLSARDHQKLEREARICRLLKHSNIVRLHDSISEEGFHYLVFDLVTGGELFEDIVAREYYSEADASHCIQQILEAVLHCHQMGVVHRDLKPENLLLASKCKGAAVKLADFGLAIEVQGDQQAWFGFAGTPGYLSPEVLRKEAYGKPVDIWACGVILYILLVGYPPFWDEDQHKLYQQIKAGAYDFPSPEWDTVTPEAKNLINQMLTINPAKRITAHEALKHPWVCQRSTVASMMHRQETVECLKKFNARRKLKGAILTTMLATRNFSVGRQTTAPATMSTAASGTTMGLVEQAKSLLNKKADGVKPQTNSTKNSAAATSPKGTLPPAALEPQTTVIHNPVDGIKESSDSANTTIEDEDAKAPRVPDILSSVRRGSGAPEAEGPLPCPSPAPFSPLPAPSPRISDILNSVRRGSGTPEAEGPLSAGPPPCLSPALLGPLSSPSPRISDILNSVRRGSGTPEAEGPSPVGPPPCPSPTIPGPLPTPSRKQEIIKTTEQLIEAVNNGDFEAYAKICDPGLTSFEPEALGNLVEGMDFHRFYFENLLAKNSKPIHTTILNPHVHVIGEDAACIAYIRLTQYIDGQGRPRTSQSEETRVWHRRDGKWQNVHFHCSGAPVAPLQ
Sequence of Tyrosine-protein kinase Fes/Fps (Homo sapiens) (P07332 whole entry): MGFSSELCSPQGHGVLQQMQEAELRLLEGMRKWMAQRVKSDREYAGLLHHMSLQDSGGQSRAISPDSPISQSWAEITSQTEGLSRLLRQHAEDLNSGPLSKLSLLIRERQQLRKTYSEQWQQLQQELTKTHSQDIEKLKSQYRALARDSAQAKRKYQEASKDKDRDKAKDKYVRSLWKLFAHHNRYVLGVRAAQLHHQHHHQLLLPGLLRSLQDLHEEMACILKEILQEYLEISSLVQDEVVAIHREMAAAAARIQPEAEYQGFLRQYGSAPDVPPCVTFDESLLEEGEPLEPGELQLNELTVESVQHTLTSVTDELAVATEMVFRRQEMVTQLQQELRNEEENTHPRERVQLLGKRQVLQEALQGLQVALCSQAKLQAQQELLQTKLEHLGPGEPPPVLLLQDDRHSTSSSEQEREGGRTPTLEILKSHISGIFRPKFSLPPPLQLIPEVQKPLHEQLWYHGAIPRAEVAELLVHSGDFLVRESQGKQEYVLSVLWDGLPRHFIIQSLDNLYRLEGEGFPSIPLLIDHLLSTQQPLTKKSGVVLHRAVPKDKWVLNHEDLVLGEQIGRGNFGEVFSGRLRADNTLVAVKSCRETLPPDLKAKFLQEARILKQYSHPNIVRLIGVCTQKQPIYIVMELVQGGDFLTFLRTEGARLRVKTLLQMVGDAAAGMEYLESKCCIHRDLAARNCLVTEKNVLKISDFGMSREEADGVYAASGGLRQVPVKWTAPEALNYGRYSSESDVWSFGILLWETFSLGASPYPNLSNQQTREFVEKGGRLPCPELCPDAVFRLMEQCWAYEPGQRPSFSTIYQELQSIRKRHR
Sequence of Cyclin-dependent kinase-like 1 (Homo sapiens) (Q00532 whole entry): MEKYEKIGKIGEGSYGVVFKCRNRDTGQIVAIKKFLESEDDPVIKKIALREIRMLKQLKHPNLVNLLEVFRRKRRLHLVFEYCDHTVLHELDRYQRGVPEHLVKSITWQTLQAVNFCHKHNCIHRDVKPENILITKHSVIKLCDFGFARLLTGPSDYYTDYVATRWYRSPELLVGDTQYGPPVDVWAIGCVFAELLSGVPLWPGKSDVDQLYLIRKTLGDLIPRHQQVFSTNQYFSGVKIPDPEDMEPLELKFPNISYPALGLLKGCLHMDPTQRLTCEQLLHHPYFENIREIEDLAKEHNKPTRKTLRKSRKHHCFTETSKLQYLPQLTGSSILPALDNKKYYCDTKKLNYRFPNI
Sequence of Alpha-1A adrenergic receptor (Homo sapiens) (P35348 whole entry): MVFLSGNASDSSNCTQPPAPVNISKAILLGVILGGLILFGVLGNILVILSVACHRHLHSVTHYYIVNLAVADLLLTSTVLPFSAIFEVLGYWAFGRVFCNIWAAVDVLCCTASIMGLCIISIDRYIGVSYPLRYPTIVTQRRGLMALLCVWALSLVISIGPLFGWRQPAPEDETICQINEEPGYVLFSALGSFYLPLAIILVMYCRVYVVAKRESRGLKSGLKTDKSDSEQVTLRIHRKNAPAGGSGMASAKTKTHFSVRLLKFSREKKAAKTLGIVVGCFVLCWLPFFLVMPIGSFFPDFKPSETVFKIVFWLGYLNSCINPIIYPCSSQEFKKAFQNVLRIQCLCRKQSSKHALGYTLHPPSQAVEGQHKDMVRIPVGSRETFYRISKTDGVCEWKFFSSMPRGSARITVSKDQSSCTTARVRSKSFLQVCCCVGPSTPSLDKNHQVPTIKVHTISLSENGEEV
Sequence of Histamine H3 receptor (Homo sapiens) (Q9Y5N1 whole entry): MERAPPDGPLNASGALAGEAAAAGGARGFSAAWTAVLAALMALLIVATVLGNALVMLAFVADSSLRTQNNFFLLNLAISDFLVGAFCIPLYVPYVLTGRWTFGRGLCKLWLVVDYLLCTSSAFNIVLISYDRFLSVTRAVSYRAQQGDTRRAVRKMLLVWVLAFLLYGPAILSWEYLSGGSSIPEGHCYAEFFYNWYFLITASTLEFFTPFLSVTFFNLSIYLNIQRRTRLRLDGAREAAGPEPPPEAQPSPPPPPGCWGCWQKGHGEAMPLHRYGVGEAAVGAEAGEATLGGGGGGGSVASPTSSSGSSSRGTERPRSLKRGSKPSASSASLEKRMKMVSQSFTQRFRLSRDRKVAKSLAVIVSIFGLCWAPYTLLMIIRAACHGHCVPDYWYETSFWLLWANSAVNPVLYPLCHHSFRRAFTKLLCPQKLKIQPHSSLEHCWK
Sequence of 5-hydroxytryptamine receptor 3A (Homo sapiens) (P46098 whole entry): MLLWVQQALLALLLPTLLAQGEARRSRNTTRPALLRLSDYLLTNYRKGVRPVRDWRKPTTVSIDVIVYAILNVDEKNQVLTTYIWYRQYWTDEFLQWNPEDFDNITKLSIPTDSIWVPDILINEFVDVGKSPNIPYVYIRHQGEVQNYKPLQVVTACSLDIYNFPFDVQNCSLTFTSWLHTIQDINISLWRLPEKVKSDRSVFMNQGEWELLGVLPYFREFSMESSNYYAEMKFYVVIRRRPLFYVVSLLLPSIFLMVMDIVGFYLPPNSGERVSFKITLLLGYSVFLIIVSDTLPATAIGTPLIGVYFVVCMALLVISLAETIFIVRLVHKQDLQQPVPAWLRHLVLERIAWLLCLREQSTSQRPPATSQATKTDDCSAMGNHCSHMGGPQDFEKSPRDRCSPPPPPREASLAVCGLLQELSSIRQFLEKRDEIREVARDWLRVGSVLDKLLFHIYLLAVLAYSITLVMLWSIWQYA

Row | delta Tm Staurosporine positive control [1] | ΔTm [1] | delta Tm Staurosporine positive control [2] | ΔTm [2] | delta Tm Staurosporine positive control [3] | ΔTm [3] | delta Tm Staurosporine positive control [4] | ΔTm [4] | delta Tm Staurosporine positive control [5] | ΔTm [5] | delta Tm Staurosporine positive control [6] | ΔTm [6] | delta Tm Staurosporine positive control [7] | ΔTm [7] | delta Tm Staurosporine positive control [8] | ΔTm [8] | inhibition [9] | inhibition [10] | inhibition [11] | inhibition [12] | SMILES
1 | 15.5 | 0.352 | 14.5 | 0.509 | 5 | 0.189 | 8.7 | 0.0445 | 6.96 | 0.161 | 22.2 | 0.17 | 15.5 | 0.324 | 13.4 | 0.0519 | 3.44% | 0.34% | 15.2% | -5.95% | C[C@H](NC(=O)c1cn(C2(C#N)CC2)cn1)C(=O)Nc1nc(-c2cccc(-c3ccn(C)n3)c2)cs1
2 | 15.5 | 0.601 | 14.5 | 0.588 | 5 | 0.194 | 8.7 | 0.123 | 6.96 | 0.221 | 22.2 | 0.157 | 15.5 | 1.34 | 13.4 | 0.528 | 5.62% | 7.45% | 12.3% | 1.42% | COC[C@H](NC(=O)c1ccn(S(C)(=O)=O)c1)C(=O)Nc1nc(-c2cccc(-c3ccn(C)n3)c2)cs1
